In series [1] the test system is spinal cord contused rats. Briefly: Locomotor recovery (BBB scale) after weight-drop spinal cord contusion at T10. It is filed as in vivo, rat. How it is done:
(§1) Adult female Wistar rats (˜245 g) were obtained from Charles River Breeding Laboratories and housed in a temperature-regulated (23° C.) animal facility. The spinal cords were contused with a weight drop apparatus similar to the NYU impactor (See also Basso, D. M., M. S. Beattie, and I. C. Breslmahan, 1996, Graded histological and locomotor outcomes after spinal cord contusion using the NYU weight-drop device versus transection, Exp. Neurol. 139:244–256, incorporated by reference) at the level of T10. Prior to surgery, the rats were anesthetized with an injection of pentobarbital sodium (60 mg/kg ip) and laminectomy was performed aseptically at T9–T10 to expose the spinal cord. The spinous processes at T8 and T11 were fixed with clamps to prevent movement during contusion. Body temperature was maintained at 37° C. during the period of anesthesia with a temperature-controlled heating pad and rectal thermometer. Graded injuries were produced in groups of rats by dropping a 10 g rod with a tip diameter of 2.5 mm from heights of either 6.25, 12.5, 25 or 50 mm as in the experiments of Basso identified above. Following contusion, each incision was closed with woundclips. An additional four groups of identically contused rats received clenbuterol received (from Chinoin, Mexico City) that was administered by adding it to the drinking water at a dose of 9 mg/L. This concentration delivers clenbuterol at a rate of 1.6 mg/kg body wt./day. The animals had access to water and food in their cages immediately after recovery from surgery and throughout the experiment. Water consumption is not believed to be affected by the addition of clenbuterol. Oral dosing is particularly effective over prolonged periods because clenbuterol readily enters the circulation via the gut, has high receptor affinity and a relatively long half-life. In all, 8 treatment groups (Table I) were examined. […]
Recovery of locomotor function was determined with BBB scale as previously described. […] For the three days following contusion and at one week intervals thereafter for a total of six weeks, each rat was scored for locomotor function according to the BBB scale. […] For several rats in treatment groups receiving 50 mm weight drops, treatment conditions became known and were scored by one observer. […]
To confirm that salbutamol, a β2-adrenoceptor agonist, can enhance recovery of locomotor function following spinal cord injury. Groups of untreated and salbutamol-treated rats were evaluated with the 21 point Basso, Beattie and Bresnahan (BBB) scale (FIG. 9) following spinal cord contusion with a weight-drop device (10 g, 25 mm drop), Salbutamol was administered via subcutaneously implanted osmotic minipumps (Alzet) that delivered 1 mg/kg body weight/day during the 28 day recovery period. […]

In series [2] the test system is spinal cord contused rats. Briefly: Spinal cord histomorphometry: % spared tissue at the contusion center. It is filed as in vivo, rat. Particulars: 6 weeks, 9 mg/L in drinking water. Here is the method:
as §1, with “examined. All of the procedures involving vertebrate animals were approved by the Institutional Animal Care and Use Committee of New York Medical College.” for “examined.”

The test system of series [3] is motor neuron degeneration (Mnd) mice. Briefly: Forelimb and hindlimb grip strength in Mnd and WT mice. The series is classed as in vivo, mouse. To be noted: 9 mg/L in drinking water until 37 weeks of age. How it is done: (§2) Forelimb and hindlimb grip strength was measured in groups of Mnd and wild type (WT) mice that were either treated with clenbuterol in the drinking H2O (9 mg/L) until 37 weeks of age or were untreated. Forelimb and hindlimb grip strength was reduced 44–66% in Mnd compared to WT mice (FIG. 6). Clenbuterol caused relative increases in forelimb grip strength that were greater in Mnd (75%) compared to WT (20%, P<0.05, t test) mice. […] These effects of genotype and clenbuterol treatment were paralleled by similar changes in muscle mass. Thus the hindlimb soleus and extensor digitorum longus muscles were reduced 27–32% in Mnd compared to WT mice (FIG. 7). Clenbuterol caused relative increases of 46% and 29% in soleus weight in Mnd and Wt mice, respectively.

For series [4] the test system is unchanged. Briefly: Hindlimb muscle weight in Mnd and WT mice. The series is classed as in vivo, mouse. Particulars: 9 mg/L in drinking water. Here is the method:
as §2

For series [5] the test system is unchanged. The series is described as follows: Behavioral tests of walking and hindlimb splaying (Messer and Flaherty), number of abnormal trials. Particulars: of 50 trials per week, from 31 to 37 weeks of age, clenbuterol-treated n=5, P<0.01 versus untreated. The series is classed as in vivo, mouse. How it is done: Behavioral tests developed by Messer and Flaherty in their original description of the Mnd mice were also performed. As described in their publication (J. Neurogenetics 3:345–355, 1986), incorporated by reference, five tests of different aspects of walking and hindlimb splaying are run each week with 10 trials for each test for a total of 50 trials. The mean number of abnormal trials occurring in clenbuterol-treated (n=5) and untreated (n=7) Mnd mice were determined until the mice were 37 weeks of age at the end of the experiment (FIG. 8). Beginning at 31 weeks of age, there is a marked worsening of behavioral scores. […] The frequency of abnormal motoneurons in each mouse was highly correlated with locomotor scores. Clenbuterol reduced the frequency of abnormal motoneurons to 8.3±0.7% (P<0.015) indicating a neurotrophic effect of β2-agonist treatment.

Series [6] shares this test system. Briefly: Motoneuron counts and abnormal eccentric nuclei in the lumbar spinal cord. It is filed as in vivo, mouse.
Series [7] has as its system cultured hippocampal neurons. To be noted: in vitro; the NGF protected cultured hippocampal neurons from glutamate excitotoxicity; cited from earlier work.
A further series concerns brain ischemia. To be noted: in vivo; cited from earlier work.
The subject of the next series is interleukin-6 secretion. Particulars: cited from earlier work.
For series [8] the following is noted: in vivo; cited from earlier work.

For `CC(C)(C)NCC(O)c1cc(Cl)c(N)c(Cl)c1` (stereo not shown) [clenbuterol], the “improvement in final BBB score due to clenbuterol” value in series [1] (25 mm weight drop, versus untreated, 6 weeks) is on record as 9.3 levels. Moreover, the “increase in BBB score” value in [1] (50 mm weight drop, fourth, fifth and sixth weeks, versus untreated) was 5.1–5.8 levels. Further, in [1] (mean ±SE over the four clenbuterol-treated groups (6.25-50 mm weight drops), 6 weeks, 9 mg/L in drinking water, untreated 8.0±2.9, P<0.05), the “mean of the final BBB scores” value amounted to 13.2±1.5. Also, the entries for the “sparing of spinal cord tissue accounted for by treatment” value in [2] (12.5 mm weight drop), in series [2] (25 mm weight drop) and in series [2] (50 mm weight drop) were 23%, 33% and 34%, respectively. For the same molecule, the “increase in hindlimb grip strength” value in [3] (Mnd mice) turned out to be 29%. The “relative increase in forelimb grip strength” value in series [3] (Mnd mice) is reported as 75%; in series [3] (WT mice), 20%. For the same molecule, the “effect on hindlimb strength” value in series [3] (WT mice) is “did not significantly affect”. For the same molecule, the “increase in extensor digitorum longus muscle weight” value in [4] (Mnd mice) is given as 21%. For the same molecule, the “relative increase in soleus weight” value is reported as 46% in [4] (Mnd mice) and 29% in [4] (Wt mice). Moreover, the “mean number of abnormal trials” value in [5] is 6.3±1.6. Further, in [6], the “motoneuron counts in the lumbar spinal cord” value is listed as “not significantly reduced in Mnd mice or affected by clenbuterol”. In addition, in [6] (clenbuterol-treated, untreated Mnd 12.6±0.9%, WT 2.3±0.2%, P<0.015), the “frequency of abnormal motoneurons (abnormal eccentric nuclei)” value turned out to be 8.3±0.7%. Also, the “release of NGF” value in series [7] is reported as “caused the release of NGF”. The “effect on hippocampal neurons following ischemia” value in the series with brain ischemia is given as “neuroprotective effects”. Moreover, the “infarct volume due to brain ischemia” value in the series with brain ischemia is reported as “reduced infarct volume”. Moreover, in the series with interleukin-6 secretion, the “secretion of IL-6” value is listed as “greatly increases secretion of IL-6”. Besides, in series [8], the blood-brain barrier passage entry is given as “crosses the blood-brain barrier”.

`CC(C)(C)NCC(O)c1ccc(O)c(CO)c1` (stereo not shown) [salbutamol]: the “recovery of locomotor function (BBB scale)” value in [1] (10 g, 25 mm drop, 1 mg/kg body weight/day by subcutaneous osmotic minipump, 28 days, versus untreated control, P<0.05) is listed as “significantly greater”.
